Entries after “also recorded” stand apart in the source; their conditions may differ. Like-named read-outs stand apart in the source and are kept apart here.
Legend:
in vitro = assay: in vitro
Method: Stability of Anti-HIV Phlospholipids in Fresh Blood at 38° C.
Drug development using phospholipids will require that the parent compound is stable in blood. […] L-PE1 and L-PE2 are identical except that the methylene group in the 13 position of the sn-2 alkyl chain has been replaced with an oxygen atom.

HIV [1] = assay: Anti-HIV activity of D-AC2 and PE analogs compared with 12MO (FIG. 7); format: cell-based
[2] = target: bee venom phospholipase A2 (PLA2) (Apis mellifera, UniProt P00630)
HIV-1 (3B) = assay: HIV-1 p24 antigen capture assay in infected monocyte-derived macrophages; format: cell-based; conditions: for dose response behaviour in MDM: 1-100 μM; for inhibition of HIV p24 antigen production in MDM: 50 μM
[3] = system: HIV (S5G7, subclone of HTLVIIIB); assay: microbe, parasite or virus in culture; format: cell-based; conditions: 7 days after infection, read-out: IC50 50% Reduction in Reverse Transcriptase Activity PBMC
HIV infected MT4 cells [4] = assay: Synergism with AZT in syncytial cell assays (FIG. 6); format: cell-based; conditions: for increase in activity (shift in dose response curve) when AZT was added: plus 0.5 nM AZT
Method: (§1) Briefly, the assay was performed as follows. On Day 0, MT4 cells were infected with HIV. On Day 3, mix 10^3-10^4 infected cells (resuspend cells at 10^4-10^5 cells/ml so that the desired number of cells is in a volume of 100 μl) with 10^5 SupT1 cells (suspended at 10^6/ml, so that there are 10^5 cells per 100 μl) in a 96 well plate. Infected cells are titered to find the optimum number of syncytial cells to count. Cells are counted either manually or by flow cytometry. […] The time intervals for other cell lines may vary. To assay drugs that block syncytia formation, 50 μl SupT1, 50 μl infected (MT4) cells (total cell number is the same), and 100 μl of drug are present.

HIV [5] = assay: microbe, parasite or virus in culture
Method: as §1

[6] = Liposome formation in aqueous buffers; format: physicochemical
Description: The increased activity of L-AC1 in MDM compared to CEM cells may be due to the phagocytosis of L-AC1 liposomes in MDM.

PBMC = assay: Drug cytotoxicity MTT assay (TC50), PBMC; format: cell-based; conditions: PBMC cells, absence of HIV
Method: (§2) Three assays for anti-HIV activity were used and the IC50 was calculated from these assays; (i) syncytial cell assays, (ii) reverse transcriptase assays, and (iii) direct […]. In addition, direct drug cytotoxicity was tested ‘as a control’ in each assay which merely means that the drug was dosed to the cells without virus present. This control assured that only the antiviral effect of the compound is measured. However, this drug cytotoxicity was not used to calculate the TC50 because the TC50 required doses of drug that were higher than the effective concentrations. Thus the TC50 is the dose of drug that kills 50% of the cells without virus present and was measured in MTT assays using the same cells type to evaluate antiviral activity. The therapeutic index was calculated from TC50/IC50. The ability of anti-HIV phospholipids to inhibit direct cytopathic effect caused by HIV infection was also measured.
(§3) MT4 cells were plated in 96-well microtiter plates at 8×10^4 cells/well in a volume of 90 μl. [Note: To compare TC50 to IC50, the same cell type used in antiviral assays was tested in the MTT assay; for these experiments, MT4 cells were used to evaluate the syncytial cell assays and PBMC's were used to compare the PBMC/RT assay]. To this was added one minimum cytotoxic dose of HIV in a volume of 10 μl. […] Plates were read on an ELISA reader at Abs 570 nm. […]

MT4 cells = assay: Drug cytotoxicity MTT assay (TC50), uninfected MT4 cells; format: cell-based
Method: as §2
(§4) MT4 cells were plated in 96-well microtiter plates at 8×10^4 cells/well in a volume of 90 μl. [Note: To compare TC50 to IC50, the same cell type used in antiviral assays was tested in the MTT assay; for these experiments, MT4 cells were used to evaluate the syncytial cell assays and PBMC's were used to compare the PBMC/RT assay]. To this was added one minimum cytotoxic dose of HIV in a volume of 10 μl. The test drug was added in 100 μl aliquots at several concentrations. A control plate using uninfected MT4 cells was set up simultaneously to assess cytotoxicity due to the drug alone. The plates were then incubated for five days at 37° C. Then the media was aspirated from the wells and replaced with 100 μl MTT solution (3-(4,5-dimethylthiazol-2-yl)-2,5-di-phenyltetrazolium bromide, 1 mg/ml in PBS) and incubated for 4 hours at 37° C. The plates were then centrifuged to pellet the cells, and the supernatants were removed (centrifugation can be omitted if the supernatants are removed carefully). […] Plates were read on an ELISA reader at Abs 570 nm. […]

[7] = system: monocyte-derived macrophages (MDM); assay: Toxicity seen in the macrophage p24 experiment; conditions: 100 μM
[8] = delivered to cells as a free fatty acid; cited from earlier work
HIV infected MT4 cells [9] = conditions: literature report; cited from earlier work
CEM cells [10] = assay: Direct cytotoxicity of compounds to CEM cells without virus; conditions: for direct cytotoxicity to CEM cells: no virus
[11] = Drug cytotoxicity MTT assay (TC50), PBMC; format: cell-based; conditions: human, uninfected; PBMC cells, absence of HIV
Method: as §2, §3

[12] = Drug cytotoxicity MTT assay (TC50), uninfected MT4 cells; format: cell-based; conditions: human, uninfected MT4 cells; MT4 cells, absence of HIV
Method: as §2, §4

HIV-1 = conditions: CEM cells
Description: The S5G7 strain of HIV was used. S5G7 is a subclone of HTLVIIIB grown in H9 cells, and highly virulent regarding T cell infectivity, but less so for monocytes; this strain was obtained from Abbott Laboratories.
This assay measures the ability of a drug to inhibit the HIV virus from killing cells. CEM cells were used for this assay.
The T-cell HIV inhibition assay method of acutely infected cells is an automated tetrazolium based calorimetric assay adapted from Novak, et al., Aids Res. and Human Retroviruses, 6, 973 (1990). Assays were performed in 96-well tissue culture plates. CEM cells were grown in RPMI-1640 medium (Gibco) supplemented with 10% fetal calf serum and were then treated with polybrene (2 μg/ml). A 80 μl volume of medium containing 1×10^4 cells was dispensed into each well of the tissue culture plate. To each well was added a 100 μl volume of test compound dissolved in tissue culture medium (or medium without test compound as a control) to achieve the desired final concentration and the cells were incubated at 37° C. for 1 hour. A frozen culture of HIV-1 was diluted in culture medium to a concentration of 5×10^6 TCID50 per ml (TCID50=the dose of virus that infects 50% of cells in tissue culture), and a 20 μl volume of the virus sample (containing 1000 TCID50 of virus) was added to wells containing test compound and to wells containing only medium (infected control cells). […] Several wells received culture medium without virus (uninfected control cells). Azidothymidine (AZT) was tested as a positive drug control.
Following the addition of virus, cells were incubated at 37° C. in a humidified, 5% CO2 atmosphere for 7 days. Additional aliquots of test compounds were added on days 2 and 5. On day 7 post-infection, the cells in each well were resuspended and a 100 μl sample of each cell suspension was removed for assay. […] The absorbance of each sample was determined at 590 nm using a Molecular Devices microplate reader. The % reduction of the virus induced cytopathic effect (CPE) by the test compounds was calculated from the equation.

CEM cells [13] = system: CEM cells

bee venom phospholipase A2 (PLA2), sequence (P00630 34-167 limits assumed): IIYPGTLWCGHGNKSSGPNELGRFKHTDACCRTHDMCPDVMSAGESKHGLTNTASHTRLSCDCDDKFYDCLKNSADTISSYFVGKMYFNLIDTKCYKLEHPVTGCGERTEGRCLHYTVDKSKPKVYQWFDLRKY

In the case of `COCCCCCCCCCCCC(=O)OC[C@H](COP(=O)(O)OCCN)OC(=O)CCCCCCCCCCCOC` [L-PE2, 1,2 di-(12-Methoxydodecanoyl)-sn-glycero-3-phosphoethanolamine], the half-life (in vitro) is reported as 562 min, the “anti-HIV activity relative to 12MO” value (HIV [1]) is reported as greater than 100 fold and the IC50 (HIV [1]; Human immunodeficiency virus 1) is reported as 20 nM.
With `CCCCCCCCCCCCCC(=O)OC[C@H](COP(=O)(O)OCCN)OC(=O)CCCCCCCCCCCOC` [L-PE1, 1-Myristoyl-2-[12-methoxydodecanoyl]-sn-glycero-3-phosphoethanolamine] the half-life (in vitro) was greater than 3000 min and the IC50 (HIV [1]; Human immunodeficiency virus 1) was 6000 nM.
In the case of “1,2-(di-12-methoxydodecanoyl)-sn-3-phosphatidylcholine [L-AC2]”, the “hydrolysis by PLA2” value [2] is reported as “quantitatively hydrolyzed”, the “inhibition of HIV infection in macrophages (p24 antigen)” value (shortened to “inhibition of HIV infection”) (HIV-1 (3B); 1 μM, 15 day acute infection) is reported as “completely suppressed” and the “inhibition of HIV infection” value (HIV-1 (3B); 1 μM, 15 day acute infection, listed as AC2) is reported as “completely effective”. The “dose response behaviour in MDM” value (HIV-1 (3B)) was “No dose response was observed”, the “inhibition of HIV infection” value (HIV-1 (3B); all doses tested (1-100 μM)) was “completely inhibited” and the “potency in HIV infected MDM compared with 12MO” value (HIV-1 (3B); comparison in words) was “significantly more potent”. The IC50 ([3]; PBMC, listed as AC2) was roughly 4 µM, the IC50 ([3]; PBMC) was 6 µM and the “activity alone in syncytial cell assay” value (HIV infected MT4 cells [4]; 5 nM) was “inactive”. The “inhibition of syncytia formation” value (HIV infected MT4 cells [4]; 5 nM L-AC2 plus 0.5 nM AZT, HIV infected MT4 cells) was roughly 50%, the “activity alone in syncytial cell assay” value (HIV infected MT4 cells [4]; 10 nM) was “inactive” and the “synergistic effects with AZT” value (HIV infected MT4 cells [4]; compared with 12MO and AZT, FIG. 6) was “increased synergistic effects”. The “increase in activity (shift in dose response curve) when AZT was added” value (HIV infected MT4 cells [4]) was “approximately 100 fold”, the IC50 (HIV [5]; read-out: IC50 50% Reduction in syncytial cell formation MT4 cells, HIV infected MT4 cells, SupT1 target cells) was 1000 nM and the IC50 (HIV [5]; read-out: IC50 50% Reduction in syncytial cell formation MT4 cells, HIV infected MT4 cells, SupT1 target cells, listed as AC2) was roughly 1000 nM. The “halflife in fresh blood” value (in vitro) was 4.56 h, the IC50 (HIV [1]) was roughly 1000 nM and the liposome formation [6] was “formed liposomes”. For the same molecule, the CC50 (PBMC) was 220 µM, the CC50 (MT4 cells; MT4 cells, absence of HIV) was 280 µM and the “TC50 in the presence of AZT” value (MT4 cells; uninfected MT4 cells, AZT 50 nM to 500 nM) was “unchanged”.
For `COCCCCCCCCCCCC(=O)O` [12MO, 12-methoxydodecanoic acid, reference compound], the “inhibition of HIV p24 antigen production in MDM” value (HIV-1 (3B)) was “little activity”, the “activity in MDM” value (HIV-1 (3B); 100 μM) was roughly 100% and the “inhibition of HIV infection” value (HIV-1 (3B); 100 μM) was “completely suppressed; also recorded: suppressed HIV replication”. For the same molecule, the “dose response behaviour in MDM” value (HIV-1 (3B)) was “very steep dose response effect”, the “inhibition of HIV infection” value (HIV-1 (3B); doses from 1 to 50 μM (below 100 μM)) was “little activity” and the “toxicity in macrophage experiment” value [7] was “toxic”. The IC50 ([3]; Human immunodeficiency virus 1, PBMC, 168 h) was roughly 12 µM, the IC50 ([3]; PBMC) was 19 µM and the “T2 for incorporation into triglycerides and membrane lipids” value [8] was 1 to 2 min. For the same molecule, the “increase in activity (shift in dose response curve) when AZT was added” value (HIV infected MT4 cells [4]) was less than 10 fold, the “synergism when administered concurrently with AZT (reported)” value (HIV infected MT4 cells [9]) was “act synergistically” and the IC50 (HIV [5]; Human immunodeficiency virus 1, read-out: IC50 50% Reduction in syncytial cell formation MT4 cells, HIV infected MT4 cells, SupT1 target cells) was roughly 4000 nM. The “Therapeutic Index MT4 cells (TC50/IC50)” value (HIV [5]; MT4 cells, syncytial cell assay) was 35, the “direct cytotoxicity to CEM cells” value (CEM cells [10]; 40 μM) was “showed toxicity” and the “toxicity compared with the other analogs” value (CEM cells [10]; CEM cells, comparison in words) was “most toxic analog tested in this series”. The “direct cytotoxicity to CEM cells” value (CEM cells [10]; dose up to 400 μM) was “toxic”, the CC50 at 5 days [11] was 340 µM and the CC50 at 5 days [12] was 140 µM.
In the case of “1-myristoyl-2-(12-methoxydodecan-oyl)-sn-3-phosphalidylcholine [AC1]”, the “inhibition of HIV p24 antigen production in MDM” value (HIV-1 (3B)) is reported as “completely suppressed”, the “inhibition of HIV infection” value (HIV-1 (3B); 100 μM) is reported as “almost complete inhibition” and the “dose response behaviour in MDM” value (HIV-1 (3B); listed as L-AC1) is reported as “dose responsive activity”. The “activity in direct cytopathic assay” value (HIV-1; 50 μM) was “little activity”, the “anti-HIV activity with the active fatty acid anchored in the sn-2 position” value (HIV-1; FIG. 1, in words) was “significantly reduced the activity” and the liposome formation [6] was “formed liposomes”. The “toxicity compared with the other analogs” value (CEM cells [13]) was “significantly less toxic”.
In the case of “1-(12-methoxydodecanoyl)-sn-3-glycerophosphatidylcholine [lysoAC2]”, the IC50 (HIV-1; read-out: IC50, reduction of virus induced cytopathic effect (CPE), 7 days, FIG. 1) is reported as roughly 100 µM and the “toxicity compared with the other analogs” value (CEM cells [13]) is reported as “significantly less toxic”.
